Data as given in ChEMBL document CHEMBL1201862, “PubChem BioAssay data set” (2004).
Activity calls are given as the source filed them.

What was measured:
[1] = target: E3 ubiquitin-protein ligase Mdm2 (Homo sapiens, UniProt Q00987); experiment: enhancers of MDM2-luciferase reporter signal, concentration-effect titration, project on inhibitors of MDM2 ubiquitin ligase, cellular assay, luminescent readout, 384-well plate format (AID 1394); format: functional;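 further: MDM2 E3 inhibitors raise luminescence so EC50 is for signal enhancement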
Chain of E3 ubiquitin-protein ligase Mdm2 (Q00987 whole entry): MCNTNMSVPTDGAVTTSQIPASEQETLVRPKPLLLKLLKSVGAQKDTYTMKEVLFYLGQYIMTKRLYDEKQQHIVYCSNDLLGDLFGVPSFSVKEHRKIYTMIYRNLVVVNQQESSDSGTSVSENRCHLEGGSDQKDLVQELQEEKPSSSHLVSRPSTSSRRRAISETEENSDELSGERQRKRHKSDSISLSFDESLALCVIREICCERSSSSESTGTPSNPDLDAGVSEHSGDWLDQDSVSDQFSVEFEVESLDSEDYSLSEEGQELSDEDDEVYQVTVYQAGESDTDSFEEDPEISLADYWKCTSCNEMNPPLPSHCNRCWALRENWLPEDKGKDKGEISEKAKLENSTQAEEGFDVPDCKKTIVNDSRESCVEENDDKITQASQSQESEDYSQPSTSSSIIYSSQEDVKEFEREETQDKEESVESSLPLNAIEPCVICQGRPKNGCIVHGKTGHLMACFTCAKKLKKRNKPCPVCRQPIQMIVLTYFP

[2] = target: Voltage-dependent T-type calcium channel subunit alpha-1H (Homo sapiens, UniProt O95180); format: functional;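 further: channel activity triggered by adding a high calcium stimulation buffer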
Chain of Voltage-dependent T-type calcium channel subunit alpha-1H (O95180 whole entry): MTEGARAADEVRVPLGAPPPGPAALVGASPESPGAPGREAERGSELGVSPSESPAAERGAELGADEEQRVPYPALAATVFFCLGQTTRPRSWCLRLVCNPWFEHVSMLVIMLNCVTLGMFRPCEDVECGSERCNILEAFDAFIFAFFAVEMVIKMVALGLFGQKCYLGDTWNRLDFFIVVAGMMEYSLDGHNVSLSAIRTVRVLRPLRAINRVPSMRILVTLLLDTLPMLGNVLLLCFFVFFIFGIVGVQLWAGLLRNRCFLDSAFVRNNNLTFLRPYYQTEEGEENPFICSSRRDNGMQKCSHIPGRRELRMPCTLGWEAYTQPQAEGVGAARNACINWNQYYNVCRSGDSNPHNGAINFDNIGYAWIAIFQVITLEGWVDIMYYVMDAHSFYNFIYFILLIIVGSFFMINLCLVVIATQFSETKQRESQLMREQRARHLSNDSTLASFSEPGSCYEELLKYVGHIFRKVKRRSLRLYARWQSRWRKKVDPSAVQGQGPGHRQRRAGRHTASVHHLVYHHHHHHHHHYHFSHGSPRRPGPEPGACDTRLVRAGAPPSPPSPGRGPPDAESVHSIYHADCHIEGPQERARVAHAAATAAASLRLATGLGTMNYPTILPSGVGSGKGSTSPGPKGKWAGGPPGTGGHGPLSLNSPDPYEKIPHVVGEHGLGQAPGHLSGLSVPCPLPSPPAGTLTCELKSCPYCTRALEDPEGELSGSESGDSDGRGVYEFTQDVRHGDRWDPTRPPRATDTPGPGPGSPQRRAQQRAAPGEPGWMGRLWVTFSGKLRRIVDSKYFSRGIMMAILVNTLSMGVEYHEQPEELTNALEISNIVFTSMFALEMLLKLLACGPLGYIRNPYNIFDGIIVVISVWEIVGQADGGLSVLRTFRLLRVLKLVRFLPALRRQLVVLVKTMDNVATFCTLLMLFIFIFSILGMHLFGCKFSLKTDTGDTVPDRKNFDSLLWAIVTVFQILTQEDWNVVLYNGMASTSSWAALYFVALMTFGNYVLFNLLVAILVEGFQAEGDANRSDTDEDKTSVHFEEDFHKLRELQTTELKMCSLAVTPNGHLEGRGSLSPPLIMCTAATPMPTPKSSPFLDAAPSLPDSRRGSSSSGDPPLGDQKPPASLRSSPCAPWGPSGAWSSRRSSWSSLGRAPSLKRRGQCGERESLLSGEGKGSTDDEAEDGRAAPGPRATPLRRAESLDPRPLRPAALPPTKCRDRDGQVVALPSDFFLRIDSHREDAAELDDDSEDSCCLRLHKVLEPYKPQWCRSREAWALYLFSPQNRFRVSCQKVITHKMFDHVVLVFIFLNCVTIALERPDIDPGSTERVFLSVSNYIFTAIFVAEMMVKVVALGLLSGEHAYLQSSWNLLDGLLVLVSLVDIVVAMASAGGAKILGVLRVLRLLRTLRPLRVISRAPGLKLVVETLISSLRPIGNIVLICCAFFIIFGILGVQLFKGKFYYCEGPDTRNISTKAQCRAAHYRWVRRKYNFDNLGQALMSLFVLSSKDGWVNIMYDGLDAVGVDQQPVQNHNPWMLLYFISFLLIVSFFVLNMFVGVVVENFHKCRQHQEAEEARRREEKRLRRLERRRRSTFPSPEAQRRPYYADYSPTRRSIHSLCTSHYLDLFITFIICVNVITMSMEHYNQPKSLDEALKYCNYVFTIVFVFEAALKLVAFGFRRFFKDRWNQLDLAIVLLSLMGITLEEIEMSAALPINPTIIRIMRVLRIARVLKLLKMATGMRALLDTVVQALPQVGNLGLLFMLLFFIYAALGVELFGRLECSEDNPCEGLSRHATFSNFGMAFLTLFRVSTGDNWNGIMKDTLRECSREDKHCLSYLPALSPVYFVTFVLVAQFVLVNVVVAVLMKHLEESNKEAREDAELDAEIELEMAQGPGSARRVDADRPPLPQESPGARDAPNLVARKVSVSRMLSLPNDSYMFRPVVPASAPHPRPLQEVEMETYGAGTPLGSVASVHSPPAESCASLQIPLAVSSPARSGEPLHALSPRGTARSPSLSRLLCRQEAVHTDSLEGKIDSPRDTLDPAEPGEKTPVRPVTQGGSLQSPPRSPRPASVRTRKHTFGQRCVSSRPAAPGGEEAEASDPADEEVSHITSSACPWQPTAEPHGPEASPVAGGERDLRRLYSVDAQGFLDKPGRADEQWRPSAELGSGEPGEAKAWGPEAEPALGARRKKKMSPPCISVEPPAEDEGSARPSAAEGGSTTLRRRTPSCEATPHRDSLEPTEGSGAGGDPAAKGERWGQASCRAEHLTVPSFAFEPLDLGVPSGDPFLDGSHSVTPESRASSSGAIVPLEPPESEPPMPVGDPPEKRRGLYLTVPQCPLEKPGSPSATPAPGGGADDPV

[3] = P. falciparum Dd2 growth inhibitors, dose response, SYBR Green, cherry-picked samples (AID 1159567); format: functional, cell-based
[4] = HepG2 cell cytotoxicity, dose response, cytotoxicity control, cherry-picked samples (AID 1159577); format: functional, cell-based
[5] = target: T1, Tyrosine-protein phosphatase non-receptor type 7 (Homo sapiens, UniProt P35236); experiment: inhibitors of human HePTP phosphatase, […], biochemical, absorbance, leukemia target (AID 521); format: functional
T1 sequence (P35236 whole entry): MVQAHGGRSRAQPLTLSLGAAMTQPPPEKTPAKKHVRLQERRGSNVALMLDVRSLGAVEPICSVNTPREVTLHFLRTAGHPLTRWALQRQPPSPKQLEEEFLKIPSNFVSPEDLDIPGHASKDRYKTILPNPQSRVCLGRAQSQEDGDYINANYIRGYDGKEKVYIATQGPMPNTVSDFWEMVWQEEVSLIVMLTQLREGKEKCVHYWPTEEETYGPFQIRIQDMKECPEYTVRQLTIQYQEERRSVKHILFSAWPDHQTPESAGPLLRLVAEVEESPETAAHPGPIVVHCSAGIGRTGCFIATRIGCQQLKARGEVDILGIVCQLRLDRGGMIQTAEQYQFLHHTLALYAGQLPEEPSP

cells [6] = experiment: cells
[7] = inhibitors of intracellular T. cruzi replication, confirmation, NIH3T3 host cells, beta-gal luminescence (AID 2044); format: functional, cell-based;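 further: intracellular parasites grown in NIH/3T3 mouse fibroblasts as host cells; luminescent beta-galactosidase reporter signal from transgenic T. cruzi replicating inside host cells; inhibitors lower the luminescence signal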
[8] = cytotoxicity toward NIH3T3 fibroblasts, dose response, counter-screen, cell-based, ATP luminescence, mouse fibroblasts (AID 2010); format: functional;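 further: cells exposed to compound for about 90 hours before reading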
[9] = target: NAD-dependent protein deacylase sirtuin-5, mitochondrial (Homo sapiens, UniProt Q9NXA8); experiment: SIRT5 desuccinylase inhibitors, dose response, biochemical, fluorescence imaging, cherry-pick, set 5 (AID 720591);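 further: desuccinylation of succinyl peptide AMC substrate read as fluorescence after trypsin release; potency of inhibitors that lower fluorescence and may act on trypsin instead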
Chain of NAD-dependent protein deacylase sirtuin-5, mitochondrial (Q9NXA8 whole entry, the tested form may be a part): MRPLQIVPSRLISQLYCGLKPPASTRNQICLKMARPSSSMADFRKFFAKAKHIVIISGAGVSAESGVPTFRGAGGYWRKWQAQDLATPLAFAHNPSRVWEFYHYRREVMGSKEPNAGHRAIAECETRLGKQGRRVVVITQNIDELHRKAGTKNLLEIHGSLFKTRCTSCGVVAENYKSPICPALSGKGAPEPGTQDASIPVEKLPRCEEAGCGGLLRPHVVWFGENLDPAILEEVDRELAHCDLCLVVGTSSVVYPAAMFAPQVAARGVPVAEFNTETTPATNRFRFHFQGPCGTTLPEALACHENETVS

[10] = target: T2, Carboxy-terminal domain RNA polymerase II polypeptide A small phosphatase 1 (Homo sapiens, UniProt Q9GZU7); experiment: inhibitors of CTDSP1, concentration-response testing, biochemical assay, absorbance-based, actives from ultra-high-throughput screening (AID 540297); format: functional
T2 sequence (Q9GZU7 whole entry): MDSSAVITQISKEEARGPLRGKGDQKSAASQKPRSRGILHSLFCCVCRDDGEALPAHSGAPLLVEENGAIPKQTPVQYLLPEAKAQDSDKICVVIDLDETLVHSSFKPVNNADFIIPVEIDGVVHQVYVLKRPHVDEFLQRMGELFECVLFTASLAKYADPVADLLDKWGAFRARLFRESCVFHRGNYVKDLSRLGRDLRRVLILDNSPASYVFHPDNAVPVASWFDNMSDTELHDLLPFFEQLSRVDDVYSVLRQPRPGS

[11] = Luminescence Cell-Based Dose Confirmation HTS to Identify Activators of 5'UTR Stem-Loop Driven Alpha-Synuclein mRNA Translation in H4 Neuroglioblastoma Cells. [Related pubchem assays: 1829 (Project Summary), 1814 (Primary HTS)]; format: functional
H4 = experiment: Luminescence Cell-Based Dose Response HTS to Identify Activators of 5'UTR Stem-Loop Driven Prion Protein mRNA Translation in H4 Neuroglioblastoma Cells. [Related pubchem assays: 1829 (Project Summary), 1814 (Primary HTS)]; format: functional; details: Homo sapiens
[12] = Luminescence Cell-Based Dose Response to Identify Activators of 5'UTR Stem-Loop Driven Prion Protein mRNA Translation in H4-C Neuroglioblastoma Cells. [Related pubchem assays: 1829 (Project Summary), 1814 (Primary HTS)]; format: functional
[13] = Luminescence Cell-Based Dose Confirmation to Identify Activators of 5'UTR Stem-Loop Driven Alpha-Synuclein mRNA Translation in H4 Neuroglioblastoma Cells. [Related pubchem assays: 1829 (Project Summary), 1814 (Primary HTS)]; format: functional
[14] = Luminescence Cell-Based Dose Response HTS to Identify Activators of Luciferase Translation or Activity in H4 […] Cells. [Related pubchem assays: 1829 (Project Summary), 1814 (Primary HTS)]; format: functional
[15] = Luminescence Cell-Based Dose Response to Identify Activators of Luciferase Translation or Activity in H4-C Neuroglioblastoma Cells. [Related pubchem assays: 1829 (Project Summary), 1814 (Primary HTS)]; format: functional
[16] = M. tuberculosis H37Rv growth inhibitors, H37Rv strain (AID 1626); format: functional
Paired box protein Pax-8 = Paired box protein Pax-8 (Homo sapiens, UniProt Q06710); experiment: inhibitors of PAX8-driven TPO luciferase reporter, dose response, RMG-I cells, cherry-pick (AID 687027); format: functional, cell-based;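 further: luciferase reporter driven by Pax8 target thyroperoxidase promoter measured by SteadyGlo luminescence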
Chain of Paired box protein Pax-8 (Q06710 whole entry): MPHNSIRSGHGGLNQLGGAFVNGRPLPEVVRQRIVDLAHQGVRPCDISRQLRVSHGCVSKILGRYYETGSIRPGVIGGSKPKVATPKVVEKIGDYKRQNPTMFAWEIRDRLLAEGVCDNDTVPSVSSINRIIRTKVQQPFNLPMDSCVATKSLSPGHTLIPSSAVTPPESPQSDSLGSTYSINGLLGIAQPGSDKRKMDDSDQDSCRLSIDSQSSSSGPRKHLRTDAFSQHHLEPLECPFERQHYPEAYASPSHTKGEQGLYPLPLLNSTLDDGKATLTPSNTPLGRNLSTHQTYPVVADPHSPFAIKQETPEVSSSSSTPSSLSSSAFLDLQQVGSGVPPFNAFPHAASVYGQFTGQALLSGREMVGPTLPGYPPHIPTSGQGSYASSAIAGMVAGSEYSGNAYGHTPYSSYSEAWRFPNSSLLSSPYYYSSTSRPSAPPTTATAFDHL

cells [17] = format: functional
[18] = Vero E6 cell cytotoxicity, dose response, cytotoxicity control for non-replicating M. tuberculosis project, secondary assay (AID 492998); format: functional, VeroE6; details: Vero C1008
Protein Wnt-3a = Protein Wnt-3a (Mus musculus, UniProt P27467); experiment: Wnt3a-driven reporter signaling inhibition, dose response, selectivity assay for Gli-SUFU antagonist project, Wnt-LIGHT cells, luminescence (AID 651570); format: functional; details: read-out: IC50_Mean;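 further: Wnt-LIGHT reporter cells stimulated with conditioned medium from Wnt3a-producing cells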
Chain of Protein Wnt-3a (P27467 whole entry): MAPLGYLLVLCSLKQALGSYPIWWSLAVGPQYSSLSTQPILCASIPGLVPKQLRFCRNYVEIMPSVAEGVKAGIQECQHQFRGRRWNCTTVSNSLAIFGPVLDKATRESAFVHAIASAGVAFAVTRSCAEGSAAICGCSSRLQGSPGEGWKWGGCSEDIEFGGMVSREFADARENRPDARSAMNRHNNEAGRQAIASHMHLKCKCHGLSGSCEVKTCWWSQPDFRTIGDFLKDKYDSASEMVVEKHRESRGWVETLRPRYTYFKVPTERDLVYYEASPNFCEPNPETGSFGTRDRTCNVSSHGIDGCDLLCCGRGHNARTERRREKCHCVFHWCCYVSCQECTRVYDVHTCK

For `CC1(C)CC2=Nc3nc(SCCN4CCOCC4)nc(O)c3C(c3cccs3)C2=C(O)C1` (centres undefined), the EC50 [1] was 47.7 µM (not active).

For `CCCOc1ccccc1Cn1c(=O)oc2ccc(C)cc21`, the EC50 [2] was 10.6 µM (active).

In the case of `COc1ccccc1NC(=O)N1CCc2[nH]c3ccc(Cl)cc3c2C1`, the EC50 [2] is reported as 11.4 µM (active).

In the case of `COc1ccc(C#Cc2ccc([C@@H]3[C@@H](CO)N4CCCCN(Cc5ccccc5F)C[C@H]34)cc2)cc1`, the AC50 [3] is reported as 0.807 µM (active) and the AC50 [4] is reported as 7.91 µM (active).

With `CCC(=O)Nc1ccc(NC(=O)c2ccco2)c(OC)c1` the IC50 [5] was > 100 µM (not active).

With `CCOC(=O)c1c(NC(=O)Cn2cnc([N+](=O)[O-])n2)sc2c1CCC(C)C2` (centres undefined) the EC50 (cells [6]) was 0.221 µM (active), the EC50 [7] was < 0.1 µM (active) and the EC50 [8] was > 60 µM (not active).

For `O=C(O)CSc1ncnc2c1sc1nc(-c3ccccc3)c3c(c12)CCC3`, the AC50 [9] was > 30 µM (inactive) and the IC50 [10] was 4.04 µM (active).

In the case of `CC(C)c1ccc(C(=O)NN2C(=O)C3CCCCC3C2=O)cc1` (centres undefined), the EC50 [11] is reported as < 0.1 µM (active), the EC50 (H4) is reported as 28.8 µM (active) and the EC50 [12] is reported as 1.21 µM (active). The EC50 [13] was 1.33 µM (active), the EC50 [14] was 0.118 µM (active) and the EC50 [15] was 1.48 µM (active).

With `C=C1C2(C(=O)Nc3ccc(SC(F)F)cc3)CCC(C2)C1(C)C` (centres undefined) the IC50 [16] was > 100 µM (active) and the AC50 (Paired box protein Pax-8) was 62.8 µM (active).

With `O=C(CCCn1c(=S)[nH]c2ccsc2c1=O)NCc1ccco1` the IC50 [5] was > 100 µM (not active).

For `COc1ccccc1NC(=O)/C(O)=C/C(=O)c1ccccc1`, the IC50 (cells [17]) was 32 µM (active) and the CC50 [18] was > 20 µM (active).

In the case of `c1ccc(-n2ncc3c(N4CCC5(CC4)OCCO5)ncnc32)cc1`, the EC50 (H4) is reported as > 120 µM (not active), the EC50 [12] is reported as 1.1 µM (active) and the EC50 [13] is reported as 0.247 µM (active). The EC50 [14] was < 0.1 µM (active) and the EC50 [15] was 0.364 µM (active).

With `CCOC(=O)N1CCN(C(=O)c2cc(COc3ccc4ncccc4c3)on2)CC1` the IC50 (Protein Wnt-3a) was 0.555 µM (active) and the AC50 [9] was > 30 µM (inactive).
